From PubChem BioAssay (NCI)
Where “and” joins values, the source holds several entries; their conditions need not be identical. Equal values may be shown once.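 Briefly, cells in 96-well plates were exposed to five compound concentrations for 48 h, and endpoints were estimated by linear interpolation. GI50: concentration for 50% inhibition of growth. TGI: concentration producing complete growth inhibition.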

How the values were obtained:
Test in all cases: DTP human tumour cell line panel, 48 h
[1] = tested on: DU-145 prostate
[2] = tested on: UO-31 renal
[3] = tested on: HCC-2998 colon
[4] = tested on: IGROV1 ovarian
[5] = tested on: SR leukemia
[6] = tested on: HOP-92 NSCLC
[7] = tested on: HOP-62 NSCLC
[8] = tested on: SF-539 CNS
[9] = tested on: OVCAR-3 ovarian
[10] = tested on: TK-10 renal

Structure (SMILES) | GI50 [1] | TGI [1] [µM] | GI50 [2] | TGI [2] [µM] | GI50 [3] | TGI [3] [µM] | GI50 [4] | TGI [4] | GI50 [5] | TGI [5] [µM] | GI50 [6] | TGI [6] | GI50 [7] | TGI [7] [µM] | GI50 [8] [µM] | TGI [8] [µM] | GI50 [9] | TGI [9] [µM] | GI50 [10] | TGI [10] [µM]
CCCCCCNC(=O)Oc1ccc(/C(=C(/C)Cc2ccc(OC)cc2)c2ccc(OCCN(C)C)cc2)cc1 | 5.55 µM | 10.4 | 3.87 µM | 8.03 | 3.82 µM | 8.43 | 4.62 µM | 9.6 µM | 1.32 µM | 6.55 | 3.49 µM | 7.9 µM | 6.18 µM | 11 | 5.01 | 9.64 | 4.93 µM | 9.79 | 4.52 µM | 9.02
COc1ccc([C@@H](O)c2cc(-c3ncnc4cc(N5CCOCC5)ccc34)c(F)cc2Cl)nn1 | 3.89 µM | > 100 | 0.646 µM | 23 | 2.85 µM | 18.7 | 0.469 µM | 4.99 µM | 7.06 µM | 34.6 | 0.382 µM | > 100 µM | 12.5 µM | > 100 | 2.13 | 12.7 | 1.41 µM | 20.3 | 1.95 µM | 17.7
Cc1ccc2sc3ccc(N)cc3c(=O)c2c1 | – | > 100 | – | > 100 | – | > 100 | – | > 100 µM | – | > 100 | – | 98.3 µM | – | > 100 | – | > 100 | – | > 100 | – | > 100
[N-]=[N+]=CC(=O)COC(=O)c1ccccc1 | – | > 100 | – | > 100 | – | > 100 | – | > 100 µM | – | > 100 | – | > 100 µM | – | > 100 | – | > 100 | – | > 100 | – | > 100
CCCCNC(=O)Oc1ccc(/C(=C(/CC)Cc2ccccc2)c2ccc(OCCN3CCCCCC3)cc2)cc1 | 41.7 µM | > 100 | 18.9 µM | 46.3 | 18.8 µM | 38.8 | 30.5 µM | > 100 µM | 14.6 µM | 41.1 | 19 µM | 47.2 µM | 70.8 µM | > 100 | 17 | 31.3 | 19.9 µM | 42.6 | 26.7 µM | 90.5
CCOC(=O)c1c2c(n(Cc3ccccc3)c1C)-c1nc(Cc3ccccc3)[nH]c1C(=O)C2=O | 1.58 µM | 2.92 | 1.32 µM | 2.64 | 2.6 µM | 4.09 | 1.24 µM | 2.68 µM | 1.65 µM | 4.02 | 1.17 µM | 2.45 µM | 1.75 µM | 3.45 | 1.77 | 3.3 | 1.13 µM | 2.47 | 1.48 µM | 3.08
CSc1nsc(S/C=C\C(=O)c2ccc(C)cc2)n1 | 20.5 µM | > 49.5 | 15.1 µM | > 62.8 | 17.8 µM | 33.8 | 25.5 µM | > 100 µM | 1.25 µM | 5.61 | 17.3 µM | 35.1 µM | 21 µM | 43.8 | 19 | 36.2 | 17 µM | 34.5 | 18.6 µM | 33.7
CC[C@]1(O)C[C@@H]2CN(CCc3c([nH]c4ccccc34)[C@@](C(=O)OC)(c3cc4c(cc3OC)N(C)[C@H]3[C@@](O)(C(N)=O)[C@H](O)[C@]5(CC)[C@@H]6C[C@@H]6CN6CC[C@]43[C@@H]65)C2)C1 | < 0.00333 µM | 0.795 | 0.548 µM | > 33.3 | 0.00413 µM | > 29 | 0.0172 µM | > 33.3 µM | < 0.00333 µM | 10.2 | < 0.00333 µM | 1.82 µM | 0.00694 µM | > 33.3 | < 0.00333 | 0.0143 | < 0.00333 µM | 0.0818 | 13 µM | > 33.3
O=C(Nc1ccc(Br)cc1)Nc1nn(C(=O)Nc2ccc(Br)cc2)c2ccccc12 | 28.9 µM | > 100 | > 100 µM | > 100 | > 100 µM | > 100 | 52.6 µM | > 100 µM | 30.5 µM | > 100 | 24.4 µM | > 65.5 µM | 26.4 µM | > 72.8 | 29.3 | > 100 | 33.9 µM | > 77.6 | 39.2 µM | > 100
COc1cc(/C=C2\CN(C(=O)CCN3CCC(=NO)CC3)C/C(=C\c3cc(OC)c(OC)c(OC)c3)C2=O)cc(OC)c1OC | 0.657 µM | 1.7 | 1.11 µM | 2.51 | 0.34 µM | 0.724 | 0.275 µM | 0.793 µM | 0.255 µM | > 27.7 | 0.676 µM | 2.04 µM | 0.719 µM | 2.39 | 0.277 | 0.928 | 0.391 µM | 1.26 | 1.18 µM | 2.8
CCC[CH2][Sn]1([CH2]CCC)[O]C(=O)c2ccc(N)cc2[O]1 | 1.26 µM | 2.52 | 0.465 µM | 1.82 | 0.855 µM | 2.48 | 1.51 µM | 2.97 µM | 0.549 µM | – | 0.149 µM | 0.988 µM | 1.35 µM | 2.82 | 0.691 | 1.94 | 1.24 µM | 2.52 | 0.528 µM | 1.69
C[C@]12CC[C@@H](OC(=O)N(CCCl)N=O)C[C@@H]1CC[C@@H]1[C@@H]2CC[C@]2(C)C(=O)CC[C@@H]12 | 0.671 µM | 7.54 | 4.22 µM | 18.1 | 2.77 µM | 9.43 | 3.75 µM | 24 µM | 0.0156 µM | 6.82 | 6.79 µM | 35.9 µM | 5.48 µM | 27 | 0.33 | 13.4 | 5.76 µM | 19.9 | 12 µM | 33.1
COc1ccc(NC(=O)n2nc(/C=C\c3ccc(O)c(OC)c3)cc2/C=C\c2ccc(O)c(OC)c2)cc1 | 3.99 µM | 24.6 | 1.52 µM | 36.4 | 5.78 µM | > 100 | 4.49 µM | 57 µM | 1.52 µM | 12.8 | 7.77 µM | > 100 µM | 3.65 µM | 42.8 | 2.35 | 13.6 | 2.98 µM | 8.4 | 10.2 µM | 95.3
CC(=O)Nc1ccc(/C=C2/NC(=S)N(/C=C3\C(=O)Oc4ccccc4C3=O)C2=O)cc1 | – | > 100 | – | > 100 | – | > 100 | – | > 100 µM | – | > 100 | – | > 100 µM | – | > 100 | – | > 100 | – | > 100 | – | > 100
Clc1ccc2c(c1)C(N1CCNCC1)=Nc1ccccc1O2 | 4.18 µM | 15.4 | 1.64 µM | 10.6 | 1.58 µM | 2.92 | 2.89 µM | 11.1 µM | 1.66 µM | 4.3 | 0.374 µM | 2.8 µM | 2.01 µM | 4.66 | 1.75 | 3.36 | 2.8 µM | 10.4 | 2.04 µM | 4.72
COc1cc2ncnc3c2cc1OCCCCCN(C)Cc1ccc(Br)cc1N3 | 0.676 µM and 0.555 µM | > 100 | 0.285 µM and 0.267 µM | > 100 | 17.7 µM and > 10 µM | > 100 | 0.35 µM and 0.31 µM | 10.6 µM and 4.31 µM | 9.25 µM and 3.38 µM | > 100 | 3.61 µM and 1 µM | 71.5 µM and > 10 µM | 21.7 µM and 8.36 µM | > 100 | > 100 | > 100 | 2.48 µM and 1.76 µM | > 100 | 0.186 µM and 0.166 µM | > 100
Oc1c(CN2CCCC2)cc(CSCc2ccccc2)c2cccnc12 | 1.28 µM | 10.7 | 0.103 µM | 1.38 | 1.39 µM | 11.9 | 1.93 µM | 11.3 µM | 0.392 µM | 2.32 | 4.52 µM | 17.6 µM | 0.513 µM | 7.78 | 1.35 | 3.93 | 0.44 µM | 2.7 | 0.775 µM | 13.1
O=C1C(Cl)=C(c2ccc([N+](=O)[O-])cc2)C(=O)c2c(O)cccc21 | – | 19.4 | – | 3.84 | – | 6.24 | – | 4.34 µM | – | > 100 | – | 3.15 µM | – | 14.8 | – | 1.13 | – | 3.11 | – | 10.7
CC12CC=CCC1CCC1C2CCC2(C)C(c3ccc(=O)oc3)CCC12O (centres undefined) | 0.0448 µM | 0.168 | 0.0988 µM | 0.225 | 0.374 µM | 3.37 | 0.0737 µM | 1.41 µM | 0.03 µM | 0.123 | 0.148 µM | 0.756 µM | 0.0459 µM | 0.201 | 0.055 | 0.184 | 0.0566 µM | 0.282 | 0.0607 µM | 0.496
